{
  "source": "patent US8741944B2",
  "about": "“Anti-infective agents against intracellular pathogens” (priority 2007, dated 2014)",
  "key": {"[1]": {"molecular_target": "recombinant PDK-1 (Homo sapiens (Human), UniProt O15530)", "sequence (O15530 whole entry, looked up)": "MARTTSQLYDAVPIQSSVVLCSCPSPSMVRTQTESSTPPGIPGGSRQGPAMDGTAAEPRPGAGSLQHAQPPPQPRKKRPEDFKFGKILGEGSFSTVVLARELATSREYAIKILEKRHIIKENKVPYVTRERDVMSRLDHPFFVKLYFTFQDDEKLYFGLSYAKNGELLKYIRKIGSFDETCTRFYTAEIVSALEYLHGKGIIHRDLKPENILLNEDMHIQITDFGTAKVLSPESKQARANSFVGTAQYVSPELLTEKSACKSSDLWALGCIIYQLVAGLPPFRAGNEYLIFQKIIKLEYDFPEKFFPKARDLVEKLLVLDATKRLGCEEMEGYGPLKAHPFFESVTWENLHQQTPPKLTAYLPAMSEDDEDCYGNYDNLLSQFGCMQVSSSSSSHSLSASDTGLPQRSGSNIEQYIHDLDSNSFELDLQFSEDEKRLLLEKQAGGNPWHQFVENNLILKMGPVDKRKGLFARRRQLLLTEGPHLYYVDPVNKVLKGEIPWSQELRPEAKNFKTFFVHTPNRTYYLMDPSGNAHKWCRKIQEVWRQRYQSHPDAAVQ", "test": "PDK-1 kinase activity (PDK-1 kinase assay kit, cell-free)", "assay_type": "biochemical", "experimental": "PDK-1 kinase activity This in vitro assay was performed using a PDK-1 kinase assay kit (Upstate, Lake Placid, N.Y.) according to the vendor's instructions. This cell-free assay is based on the ability of recombinant PDK-1, in the presence of DMSO vehicle or the test agent, to activate its downstream kinase serum- and glucocorticoid-regulated kinase (SGK.) which, in turn, phosphorylates the Akt/SGK-specific peptide substrate RPRAATF with [γ-^32]-ATP. […] The reported values represent the means of two independent determinations."}, "[2]": {"system": "phospho-Akt", "test": "Western blot analysis of Akt and phospho-Akt in PC-3 cells", "assay_type": "cell-based, human", "details": "even at 1 μM", "experimental": "Immunoblotting. The general procedure for the Western blot analysis of Akt and phospho-Akt is described as follows. Cells were washed in PBS, resuspended in SDS sample buffer sonicated by an ultrasonic sonicator for 5 see, and boiled for 5 min. After brief centrifugation, equivalent protein concentrations from the soluble fractions were resolved in 10% SDS-polyacrylamide gels on a Minigel apparatus, and transferred to a nitrocellulose membrane using a semi-dry transfer cell. The transblotted membrane was washed three times with TBS containing 0.05% Tween 20 (TBST). After blocking with TBST containing 5% nonfat milk for 60 min., the membrane was incubated with the primary antibody at 1:1,000 dilution in TBST-5% low fat milk at 4° C. for 12 h, and was then washed three times with TBST. The membrane was probed with goat anti-rabbit IgG-HRP conjugates (1:1,000) for 1 h at room temperature, and was washed with TBST three times. The immunoblots were visualized by enhanced chemiluminescence."}, "[3]": {"molecular_target": "COX-2 (Homo sapiens (Human), UniProt P35354)", "sequence (P35354 whole entry, looked up)": "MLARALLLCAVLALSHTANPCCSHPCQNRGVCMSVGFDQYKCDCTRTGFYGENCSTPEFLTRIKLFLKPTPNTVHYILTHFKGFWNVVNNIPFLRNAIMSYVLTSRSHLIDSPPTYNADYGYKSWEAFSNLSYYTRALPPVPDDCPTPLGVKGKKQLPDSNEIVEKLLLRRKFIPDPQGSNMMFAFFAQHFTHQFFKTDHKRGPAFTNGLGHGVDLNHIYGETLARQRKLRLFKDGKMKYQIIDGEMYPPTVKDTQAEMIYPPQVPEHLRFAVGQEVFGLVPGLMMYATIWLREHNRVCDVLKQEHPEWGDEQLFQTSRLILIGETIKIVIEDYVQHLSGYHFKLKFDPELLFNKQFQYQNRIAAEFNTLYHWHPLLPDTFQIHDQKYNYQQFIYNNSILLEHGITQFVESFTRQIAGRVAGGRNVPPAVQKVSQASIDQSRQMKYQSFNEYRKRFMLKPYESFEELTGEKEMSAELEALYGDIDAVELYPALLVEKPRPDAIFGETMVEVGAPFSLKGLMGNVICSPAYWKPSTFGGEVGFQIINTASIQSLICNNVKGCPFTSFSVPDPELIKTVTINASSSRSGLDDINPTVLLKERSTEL", "test": "COX-2 inhibitory activity", "assay_type": "biochemical", "details": "concentrations up to 50 μM"}, "[4]": {"system": "PC-3 cells", "test": "Apoptosis analysis in PC-3 cells (DNA fragmentation ELISA, PARP cleavage)", "assay_type": "cell-based, human", "details": "1% FBS-containing medium", "experimental": "Apoptosis analysis Two methods were used to assess drug-induced apoptotic cell death: detection of DNA fragmentation by the Cell Death Detection ELISA kit (Roche Diagnostics. Mannheim, Germany) and Western blot analysis of poly-(ADP-ribose)polymerase (PARP) cleavage. […] In brief, 4×10^5 PC-3 cells were cultured in a T-25 flask for 24 h before treatment. Cells were treated with the DMSO vehicle or the test agent at the indicated concentrations for 6-24 h, collected, and cell lysates equivalent to 2×10^3 PC-3 cells were used in the ELISA. For the PARP cleavage assay, drug-treated cells were collected 4-8 h post-treatment, washed with ice-cold PBS, and resuspended in lysis buffer containing 20 mM Tris-HCl, pH 8, 137 mM NaCl, 1 mM CaCl2, 10% glycerol, 1% Nonidet P-40, 0.5% deoxycholate, 0.1% SDS, 100 μM 4-(2-aminoethyl)benzenesulfonyl fluoride, leupeptin at 10 μg/mL, and aprotinin at 10 μg/mL. Soluble cell lysates were collected after centrifugation at 10,000 g for 5 min. Equivalent amounts of proteins (60-100 μg) from each lysate were resolved in 8% SDS-polyacrylamide gels. Bands were transferred to nitrocellulose membranes, and analyzed by immunoblotting with anti-PARP antibody."}, "[5]": {"system": "SNB-19 (CNS Cancer)", "test": "NCI DTP tumor cell line screen (SRB), SNB-19"}, "[6]": {"system": "BT-549 (Breast Cancer)", "test": "NCI DTP tumor cell line screen (SRB), BT-549"}, "[7]": {"system": "NCI-H226 (Non-Small Cell Lung Cancer)"}, "[8]": {"system": "U251 (CNS Cancer)", "test": "NCI DTP tumor cell line screen (SRB), U251"}, "[9]": {"system": "SF-295 (CNS Cancer)", "test": "NCI DTP tumor cell line screen (SRB), SF-295"}, "[10]": {"system": "SF-268 (CNS Cancer)", "test": "NCI DTP tumor cell line screen (SRB), SF-268"}},
  "note": "Read-outs that look alike come from different tables or passages of the source.",
  "data": [
    {"molecule": "4-[5-(2-Phenanthrenyl)-3-(trifluoromethyl)-1H-pyrazol-1-yl]-phenyl -guanidine [Compound 71]", "values": [
      {"measurement": "increase in PDK-1 inhibition potency over compound 59", "setting": "[1]", "value": "five-fold"},
      {"measurement": "phospho-Akt level", "setting": "[2]", "value": "substantial decrease"},
      {"measurement": "COX-2 inhibitory activity", "setting": "[3]", "value": "nor was any measurable COX-2 inhibitory activity detected"},
      {"measurement": "apoptotic death in PC-3 cells (DNA fragmentation and PARP cleavage)", "setting": "[4]", "value": "induced apoptotic death"}
    ]},
    {"molecule": "NCC(=O)Nc1ccc(-n2nc(C(F)(F)F)cc2-c2ccc3c(ccc4ccccc43)c2)cc1", "note": "[Compound 70, 2-Amino-N-{4-[5-(2-phenanthrenyl)-3-(trifluoromethyl)-1H-pyrazol-1-yl]-phenyl}-acetamide]", "values": [
      {"measurement": "TGI", "setting": "[5]", "value": "3.15E−06"},
      {"measurement": "Mean Optical Densities", "setting": "[5]; Log10 Concentration −4.0", "value": 0.324},
      {"measurement": "Mean Optical Densities", "setting": "[5]; Log10 Concentration −5.0", "value": 0.219},
      {"measurement": "Percent Growth", "setting": "[5]; Log10 Concentration −5.0", "value": "−59", "unit": "%"},
      {"measurement": "Mean Optical Densities", "setting": "[5]; Log10 Concentration −6.0", "value": 1.230},
      {"measurement": "Percent Growth", "setting": "[5]; Log10 Concentration −6.0", "value": 59, "unit": "%"},
      {"measurement": "Mean Optical Densities", "setting": "[5]; Log10 Concentration −7.0", "value": 1.655},
      {"measurement": "Percent Growth", "setting": "[5]; Log10 Concentration −7.0", "value": 94, "unit": "%"},
      {"measurement": "Mean Optical Densities", "setting": "[5]; Log10 Concentration −8.0", "value": 1.562},
      {"measurement": "Percent Growth", "setting": "[5]; Log10 Concentration −8.0", "value": 87, "unit": "%"},
      {"measurement": "TGI", "setting": "[6]", "value": "2.95E−06"},
      {"measurement": "Mean Optical Densities", "setting": "[6]; Log10 Concentration −5.0", "value": 0.143},
      {"measurement": "Percent Growth", "setting": "[6]; Log10 Concentration −5.0", "value": "−71", "unit": "%"},
      {"measurement": "Mean Optical Densities", "setting": "[6]; Log10 Concentration −6.0", "value": 0.785},
      {"measurement": "Percent Growth", "setting": "[6]; Log10 Concentration −6.0", "value": 63, "unit": "%"},
      {"measurement": "Mean Optical Densities", "setting": "[6]; Log10 Concentration −7.0", "value": 0.891},
      {"measurement": "Percent Growth", "setting": "[6]; Log10 Concentration −7.0", "value": 86, "unit": "%"},
      {"measurement": "Mean Optical Densities", "setting": "[6]; Log10 Concentration −8.0", "value": 0.912},
      {"measurement": "Percent Growth", "setting": "[6]; Log10 Concentration −8.0", "value": 90, "unit": "%"},
      {"measurement": "TGI", "setting": "[7]", "value": "3.21E−06"},
      {"measurement": "Mean Optical Densities", "setting": "[7]; Log10 Concentration −4.0", "value": 0.614},
      {"measurement": "Mean Optical Densities", "setting": "[7]; Log10 Concentration −5.0", "value": 0.505},
      {"measurement": "Percent Growth", "setting": "[7]; Log10 Concentration −5.0", "value": "−58", "unit": "%"},
      {"measurement": "Mean Optical Densities", "setting": "[7]; Log10 Concentration −6.0", "value": 1.429},
      {"measurement": "Percent Growth", "setting": "[7]; Log10 Concentration −6.0", "value": 59, "unit": "%"},
      {"measurement": "Mean Optical Densities", "setting": "[7]; Log10 Concentration −7.0", "value": 1.586},
      {"measurement": "Percent Growth", "setting": "[7]; Log10 Concentration −7.0", "value": 98, "unit": "%"},
      {"measurement": "Mean Optical Densities", "setting": "[7]; Log10 Concentration −8.0", "value": 1.593},
      {"measurement": "Percent Growth", "setting": "[7]; Log10 Concentration −8.0", "value": 100, "unit": "%"},
      {"measurement": "TGI", "setting": "[8]", "value": "2.64E−06"},
      {"measurement": "Mean Optical Densities", "setting": "[8]; Log10 Concentration −4.0", "value": 0.320},
      {"measurement": "Mean Optical Densities", "setting": "[8]; Log10 Concentration −5.0", "value": 0.144},
      {"measurement": "Percent Growth", "setting": "[8]; Log10 Concentration −5.0", "value": "−63", "unit": "%"},
      {"measurement": "Mean Optical Densities", "setting": "[8]; Log10 Concentration −6.0", "value": 0.810},
      {"measurement": "Percent Growth", "setting": "[8]; Log10 Concentration −6.0", "value": 46, "unit": "%"},
      {"measurement": "Mean Optical Densities", "setting": "[8]; Log10 Concentration −7.0", "value": 1.139},
      {"measurement": "Percent Growth", "setting": "[8]; Log10 Concentration −7.0", "value": 82, "unit": "%"},
      {"measurement": "Mean Optical Densities", "setting": "[8]; Log10 Concentration −8.0", "value": 1.298},
      {"measurement": "Percent Growth", "setting": "[8]; Log10 Concentration −8.0", "value": 100, "unit": "%"},
      {"measurement": "TGI", "setting": "[9]", "value": "3.71E−06"},
      {"measurement": "Mean Optical Densities", "setting": "[9]; Log10 Concentration −4.0", "value": 0.287},
      {"measurement": "Mean Optical Densities", "setting": "[9]; Log10 Concentration −5.0", "value": 0.225},
      {"measurement": "Percent Growth", "setting": "[9]; Log10 Concentration −5.0", "value": "−47", "unit": "%"},
      {"measurement": "Mean Optical Densities", "setting": "[9]; Log10 Concentration −6.0", "value": 0.915},
      {"measurement": "Percent Growth", "setting": "[9]; Log10 Concentration −6.0", "value": 62, "unit": "%"},
      {"measurement": "Mean Optical Densities", "setting": "[9]; Log10 Concentration −7.0", "value": 1.190},
      {"measurement": "Percent Growth", "setting": "[9]; Log10 Concentration −7.0", "value": 96, "unit": "%"},
      {"measurement": "Mean Optical Densities", "setting": "[9]; Log10 Concentration −8.0", "value": 1.173},
      {"measurement": "Percent Growth", "setting": "[9]; Log10 Concentration −8.0", "value": 94, "unit": "%"},
      {"measurement": "TGI", "setting": "[10]", "value": "4.16E−06"},
      {"measurement": "Mean Optical Densities", "setting": "[10]; Log10 Concentration −4.0", "value": 0.280},
      {"measurement": "Mean Optical Densities", "setting": "[10]; Log10 Concentration −5.0", "value": 0.252},
      {"measurement": "Percent Growth", "setting": "[10]; Log10 Concentration −5.0", "value": "−33", "unit": "%"},
      {"measurement": "Mean Optical Densities", "setting": "[10]; Log10 Concentration −6.0", "value": 0.789},
      {"measurement": "Percent Growth", "setting": "[10]; Log10 Concentration −6.0", "value": 54, "unit": "%"},
      {"measurement": "Mean Optical Densities", "setting": "[10]; Log10 Concentration −7.0", "value": 0.930},
      {"measurement": "Percent Growth", "setting": "[10]; Log10 Concentration −7.0", "value": 72, "unit": "%"},
      {"measurement": "Mean Optical Densities", "setting": "[10]; Log10 Concentration −8.0", "value": 1.016},
      {"measurement": "Percent Growth", "setting": "[10]; Log10 Concentration −8.0", "value": 84, "unit": "%"}
    ]}
  ]
}
